Where two headings read alike, the source gives them in different places. Where no end group is shown, it is not given here.
What was measured:
[1] = rat, in vivo, po, 5 mg/kg; for Plasma:Brain Ratio: male, Sprague Dawley, 2 h
Experimental: (§2) Pharmacokinetic screening in rats was performed on various compounds to measure brain to plasma ratio at 2 hour time point. […] The parameters for the pharmacokinetic protocol were as follows.
Amount of compound: 5 mg/kg
(§3) Species: Rat; Strain: Sprague Dawley; Sex: Male
Diet Status: Overnight fasting
(§4) Number of Animals (n) for each time point: 2
(§5) Formulation: 0.1% CMC, 0.25% Tween 80 in distilled water
(§6) Each formulation was administered once by oral gavage using a gavage needle (18G-3, BrainTree Scientific, INC, USA) attached to a syringe. The dose volume was 5 mL/kg for all animals. The actual volume administered to each animal was calculated and adjusted based on the most recent body weight.
(§7) Blood samples (approximately 300 μL whole blood) was collected from each animal via tail vein except for terminal blood samples. Terminal blood samples were collected via cardiac puncture. All samples were collected into tubes containing lithium heparin (Multivette 600 LH-Gel, Sarstedt, Newton, N.C., USA). Following collection, the tubes were placed in refrigerator (maximum 30 minutes) or until centrifugation under refrigeration (at 2 to 8° C.) at 5000 g for 7 minutes. Each harvested plasma sample was then transferred into 1.2 mL polypropylene tubes, on the 96-Well Plate according to the 96-Well Plate plasma sample map and kept in freezer. Plasma samples were then analyzed for test substances.
(§8) Brain samples were collected immediately after the rats were euthanised at designated time points. Brain samples were rinsed with saline, blotted dry, and weighed. Brain samples were placed into individual containers and kept in freezer (−20° C.). Brain samples were then analyzed for test articles.
(§9) After analysis, all the plasma results were reported as ng/mL and brain sample results are reported as ng/g.

in vivo = settings: male, Sprague Dawley, rat, po, 5 mg/kg
Experimental: as §2
Amount of compound: 5 mg/kg
as §3
Diet Status: Overnight fasting
as §4, §5, §6, §7, §8, §9

human MC-4R = target: T1, human MC-4R (Homo sapiens, UniProt P32245); experiment: Biological Assay: inhibition of AgRP functional interaction with MC-4R in presence of αMSH (cAMP production); format: cell-based; settings: HEK293 cells expressing human MC-4R, AgRP83-132 and αMSH present
T1 construct: expressed in transfected cells
In short: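 HEK293 cells stably expressing human MC-4R (20,000/well) in EBSS/HEPES pH 7.4 with 0.5 mM IBMX. Compounds preincubated 30 min at room temperature with human AgRP83-132, then cells added and stimulated with αMSH 30 min at 37 °C. Intracellular cAMP measured after lysis; inhibition of AgRP seen as increased cAMP.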

[2] = Stability in Liver Microsomes (human); format: in vitro ADME; settings: 1 μM, 0.5 mg protein/mL, NADPH, 60 minutes, 37° C., pH 7.4
Experimental: (§1) Various compounds were tested for their stability in human, monkey, dog, rat, and mouse liver microsomes. At a final concentration of 1 μM, compounds were incubated with either human, monkey, dog, rat, or mouse liver microsomes (0.5 mg protein/mL) in the presence of an NADPH-solution for 60 minutes at 37° C., pH 7.4 in phosphate buffer. Incubations were performed in duplicate. Reactions were terminated by the addition of methanol. The incubation solution was vortexed and transferred into a 96-well plate. The plate was sealed and centrifuged at approximately 3500 rpm for approximately 10 minutes. After centrifugation, the plate was loaded into 96-well plate autosampler and analyzed by LC/MS. Values are reported as percent of compound remaining after 1 hour.

[3] = Stability in Liver Microsomes (monkey); format: in vitro ADME; settings: 1 μM, 0.5 mg protein/mL, NADPH, 60 minutes, 37° C., pH 7.4
Experimental: as §1

[4] = Stability in Liver Microsomes (dog); format: in vitro ADME; settings: 1 μM, 0.5 mg protein/mL, NADPH, 60 minutes, 37° C., pH 7.4
Experimental: as §1

[5] = Stability in Liver Microsomes (rat); format: in vitro ADME; settings: 1 μM, 0.5 mg protein/mL, NADPH, 60 minutes, 37° C., pH 7.4
Experimental: as §1

[6] = Stability in Liver Microsomes (mouse); format: in vitro ADME; settings: 1 μM, 0.5 mg protein/mL, NADPH, 60 minutes, 37° C., pH 7.4
Experimental: as §1

[7] = Pharmacokinetic screening in rats (plasma and brain); settings: rat, 5 mg/kg PO; for concentration at 2 h: male, Sprague Dawley, po, 5 mg/kg, 2 hour time point; for Brain - 24 hours AUC (h * ng/g): 24 hour study
Experimental: as §2
Amount of compound: 5 mg/kg
as §3
Diet Status: Overnight fasting
as §4, §5, §6, §7, §8, §9

[8] = test system: adult male Sprague Dawley rats; experiment: Feeding Study (icv AgRP, food intake and body weight); format: in vivo, Rat
Experimental: 27 adult male Sprague Dawley rats (Charles River Laboratories) were implanted with right lateral cerebral ventricular cannulas and allowed to recover for one week. After one week, animals were then randomized into 4 groups that were matched for food intake and body weight: water gavage-icv saline (n=6); Example 7 gavage-icv saline (n=7); water gavage-icv AgRP (n=7); Example 7 gavage-icv AgRP (n=7). Water or Example 7 (30 mg/kg) was administered at by oral gavage followed by icv injection of either saline or 0.2 nmol human AgRP 83-132. AgRP stimulated food intake and body weight gain over the next 24 h compared to saline controls. Both of these effects of AgRP were blocked by injection administration of Example 7.
On day 2 a second dose of Example 7 (30 mg/kg) or water was administered by oral gavage. On day 3, water or Example 7 (30 mg/kg) was administered for the third and final time by oral gavage followed by icv injection of either saline or 0.2 nmol human AgRP83-132. Food intake and body weight were monitored daily and animals were sacrificed on day 5.

[9] = read-out: Average EC50 (nM) in Biological Assay
[10] = plasma, Plasma - 2 hours (ng/mL)
[11] = 0.2 nmol icv, water gavage, next 24 h

T1 sequence (P32245 whole entry): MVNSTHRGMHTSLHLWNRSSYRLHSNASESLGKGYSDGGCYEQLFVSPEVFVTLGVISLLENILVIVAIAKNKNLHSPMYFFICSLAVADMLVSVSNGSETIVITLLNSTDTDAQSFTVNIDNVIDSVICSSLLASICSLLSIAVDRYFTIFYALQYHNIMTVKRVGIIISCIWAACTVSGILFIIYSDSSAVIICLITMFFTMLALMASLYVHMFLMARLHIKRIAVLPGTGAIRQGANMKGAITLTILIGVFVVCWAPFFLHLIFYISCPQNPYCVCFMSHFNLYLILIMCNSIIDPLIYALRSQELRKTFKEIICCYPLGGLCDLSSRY

| Compound | Plasma:Brain Ratio [1] | concentration at 2 h (in vivo; Brain - 2 hours (ng/g)) [ng/g] | concentration at 2 h (in vivo; Plasma - 2 hours (ng/mL)) [ng/mL] | EC50 (human MC-4R; [9]) [nM] | Stability in Liver Microsomes (% remaining after 1 hour incubation) Human [2] [%] | Stability in Liver Microsomes (% remaining after 1 hour incubation) Monkey [3] [%] | Stability in Liver Microsomes (% remaining after 1 hour incubation) Dog [4] [%] | Stability in Liver Microsomes (% remaining after 1 hour incubation) Rat [5] [%] | Stability in Liver Microsomes (% remaining after 1 hour incubation) Mouse [6] [%] | Plasma - 2 hours [1] [ng/mL] | EC50 (human MC-4R; Average EC50 (nM) in Biological Assay) [nM] | concentration at 2 h ([7]; brain, Brain - 2 hours (ng/g)) [ng/g] | concentration at 2 h [7, 10] [ng/mL] | Brain - 24 hours AUC (h * ng/g) [7] | cumulative weight gain over the entire period, icv AGRP + H2O ([8]; 0.2 nmol icv days 1 and 3, water gavage, to day 5) | body weight gain after icv AgRP compared to saline controls [8, 11] | food intake after icv AgRP compared to saline controls [8, 11] |
| --- | --- | --- | --- | --- | --- | --- | --- | --- | --- | --- | --- | --- | --- | --- | --- | --- | --- |
| C[C@H]1CC[C@H](Oc2ccc(-c3csc(N(CCC(=O)[O-])Cc4cccs4)n3)cc2)CC1.[Na+] [Reference Compound C, Sodium 3-({4-[4-(trans-4-methyl-cyclohexyloxy)-phenyl]-thiazol-2-yl}-thiophen-2-ylmethyl-amino)-propionate, reference compound] | 2.0:1 | 1240 | 2460 |  |  |  |  |  |  |  |  |  |  |  |  |  |  |
| CCc1ccc(CN(CCC(=O)[O-])c2nc([C@H]3CC[C@H](C(C)(C)C)CC3)cs2)s1.[Na+] [Example 8, Sodium; 3-[[4-(trans-4-tert-butyl-cyclohexyl)-thiazol-2-yl]-(5-ethyl-thiophen-2-ylmethyl)-amino]-propionate] | 3.3:1 | 1580 | 5160 | 210 | 93 | 84 | 91 | 88 | 88 |  |  |  |  |  |  |  |  |
| Cc1ccc(CN(CCC(=O)[O-])c2nc(C3(C)CCC(C)CC3)cs2)s1.[Na+] (stereo not drawn) [Example 46, Sodium; 3-[[4-(1,4-dimethyl-cyclohexyl)-thiazol-2-yl]-(5-methyl-thiophen-2-ylmethyl)-amino]-propionate] | 1.9:1 | 536 | 1040 | 76 |  |  |  |  |  |  |  |  |  |  |  |  |  |
| CCc1ccc(CN(CCC(=O)[O-])c2nc(C3CCC(C)CC3)cs2)s1.[Na+] (stereo not drawn) [Example 5, Sodium; 3-{(5-ethyl-thiophen-2-ylmethyl)-[4-(4-methyl-cyclohexyl)-thiazol-2-yl]-amino}-propionate] | 2.6:1 | 1460 | 3780 | 241 |  |  |  |  |  |  |  |  |  |  |  |  |  |
| Cc1ccc(CN(CCC(=O)[O-])c2nc([C@H]3CC[C@H](C(C)C)CC3)cs2)s1.[Na+] [Example 9, Sodium; 3-[[4-(4-trans-isopropyl-cyclohexyl)-thiazol-2-yl]-(5-methyl-thiophen-2-ylmethyl)-amino]-propionate] |  |  |  | 274 | 82 | 74 | 92 | 66 | 69 | 3062 |  |  |  |  |  |  |  |
| O=C([O-])CCN(Cc1cccs1)c1nc(-c2ccc(-c3ccccc3)cc2)cs1.[Na+] [Reference Compound B, Sodium 3-[(4-biphenyl-4-yl-thiazol-2-yl)-thiophen-2-ylmethylamino]-propionate, reference compound] | 1.5:1 | 2110 | 3080 |  | 82 | 64 | 95 | 91 | 99 |  |  |  |  |  |  |  |  |
| CCc1ccc(CN(CCC(=O)[O-])c2nc(C3CCC(c4ccccc4)CC3)cs2)s1.[Na+] (stereo not drawn) [Example 39, Sodium; 3-{(5-ethyl-thiophen-2-ylmethyl)-[4-(4-phenyl-cyclohexyl)-thiazol-2-yl]-amino}-propionate] | 4.0:1 | 1910 | 7620 | 275 |  |  |  |  |  |  |  |  |  |  |  |  |  |
| Cc1cc(CN(CCC(=O)O)c2nc(C3CCC(C(C)C)CC3)cs2)c(C)s1 (stereo not drawn) [Example 26, 3-{(2,5-Dimethyl-thiophen-3-ylmethyl)-[4-(4-isopropyl-cyclohexyl)-thiazol-2-yl]-amino}-propionic acid] |  |  |  |  | 79 | 67 | 72 | 66 | 71 |  | 276 | 942 | 6260 | +++ (values between 20,000 and 10,000 h*ng/g) |  |  |  |
| Cc1cc(CN(CCC(=O)O)c2nc(C3CCC(C(C)(C)C)CC3)cs2)c(C)s1 (stereo not drawn) [Example 25, 3-[[4-(4-tert-Butyl-cyclohexyl)-thiazol-2-yl]-(2,5-dimethyl-thiophen-3-ylmethyl)-amino]-propionic acid] |  |  |  | 80 | 99 | 77 | 69 | 69 | 81 |  |  | 552 | 10500 | +++ (values between 20,000 and 10,000 h*ng/g) |  |  |  |
| AgRP: AgRP83-132 (human, Phoenix Pharma, cat no. 003-53), Agouti related protein fragment given icv (SSRRCVRLHESCLGQQVPCCDPCATCYCRFFNAFCYCRKLGTAMNPCSRT; ends and bridges not checked; cysteine pairing not given here; UniProt O00253 83-132, looked up, fragment) [reference compound] |  |  |  |  |  |  |  |  |  |  |  |  |  |  | above 30 grams | stimulated | stimulated |

Reference: patent publication US8563742B2, “Substituted aminothiazole derivatives, pharmaceutical compositions, and methods of use” (High Point Pharmaceuticals, LLC, priority 2008, dated 2013)
